In experiment [1] the target is T1, KAT5 (Homo sapiens, UniProt Q92993).
T1 construct: His-TEV tag (N, cleaved yes); made in house
Kind of experiment: KAT5 enzyme inhibition assay (SAMDI mass spectrometry). The class given is biochemical. As to conditions: His-TEV-FL KAT5-Flag enzyme construct.

Experiment [2] addresses T2, KAT6A (Homo sapiens, UniProt Q92794).
T2 construct: His-TEV tag (N, cleaved yes); made in house
The experiment in a line: KAT6A enzyme inhibition assay (SAMDI mass spectrometry). It is filed as biochemical. As to conditions: His-TEV-KAT6A 501-784 enzyme construct.

T1 sequence (Q92993 with tags, fused parts or gaps): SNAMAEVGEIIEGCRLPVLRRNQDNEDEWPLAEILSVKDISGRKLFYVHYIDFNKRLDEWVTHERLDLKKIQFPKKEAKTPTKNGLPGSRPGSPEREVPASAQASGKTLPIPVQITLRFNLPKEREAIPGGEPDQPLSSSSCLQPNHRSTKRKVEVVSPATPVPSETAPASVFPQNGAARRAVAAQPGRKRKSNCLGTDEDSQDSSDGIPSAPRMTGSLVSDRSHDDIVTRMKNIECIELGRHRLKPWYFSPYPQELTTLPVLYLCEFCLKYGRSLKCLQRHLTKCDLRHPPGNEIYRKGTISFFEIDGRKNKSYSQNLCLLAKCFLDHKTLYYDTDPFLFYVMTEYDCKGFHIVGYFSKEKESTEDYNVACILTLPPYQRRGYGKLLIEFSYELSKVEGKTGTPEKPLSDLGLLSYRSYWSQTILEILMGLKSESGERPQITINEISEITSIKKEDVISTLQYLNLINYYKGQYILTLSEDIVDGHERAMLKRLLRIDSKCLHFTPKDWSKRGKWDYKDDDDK
T2 sequence (Q92794 with tags, fused parts or gaps): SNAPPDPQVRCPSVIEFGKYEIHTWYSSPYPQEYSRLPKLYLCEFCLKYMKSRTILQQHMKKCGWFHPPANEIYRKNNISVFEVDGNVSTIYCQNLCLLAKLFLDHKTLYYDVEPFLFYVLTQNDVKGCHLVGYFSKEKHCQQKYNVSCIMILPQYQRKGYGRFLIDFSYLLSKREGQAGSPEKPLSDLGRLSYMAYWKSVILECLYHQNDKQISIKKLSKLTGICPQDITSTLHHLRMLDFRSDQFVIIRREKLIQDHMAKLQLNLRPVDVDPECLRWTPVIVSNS

Turning to `O=C(NNC(=O)c1ccccc1F)c1ccccc1` [Compound I-138], the IC50 in experiment [1] and in experiment [2] was greater than 100 µM throughout.

On to `Cc1ccc(-c2ccccc2)c(F)c1C(=O)NNS(=O)(=O)c1ccccc1` [Compound I-139], for which the IC50 in experiment [1] and in experiment [2] was greater than 100 µM each time.

On to `Cc1cc(-c2ccccc2)cc(C(=O)NNS(=O)(=O)CC2CCNCC2)c1F` [Compound I-141], for which the IC50 in experiment [1] is 50 to 100 µM; in experiment [2], greater than 100 µM.

As to `Cc1cc(C(=O)NNS(=O)(=O)c2ccccc2)c(F)c(-c2ccccc2)c1` [Compound I-142], the half-inhibitory concentration (IC50) in experiment [1] was 10 to 50 µM; in experiment [2] it was no more than 10 µM.

As to `O=C(NNS(=O)(=O)c1ccc(Cl)cc1)c1ccccc1F` [Compound I-143], the concentration for half-maximal inhibition (IC50) in experiment [1] is greater than 100 µM; in experiment [2], 10 to 50 µM.

For the compound `O=C(NNS(=O)(=O)c1ccccc1)c1cccc(-c2ccccc2)c1` [Compound I-144], the IC50 in experiment [1] was greater than 100 µM; in experiment [2] it was no more than 10 µM.

In the case of `COc1ccccc1C(=O)NNS(=O)(=O)c1ccccc1` [Compound I-145], the IC50 in experiment [1] and in experiment [2] was greater than 100 µM throughout.

As to `Cc1cc(-c2ccccc2)cc(C(=O)NNS(=O)(=O)c2ccc(CO)cc2)c1F` [Compound I-147], the IC50 in experiment [1] was 10 to 50 µM; in experiment [2], no more than 10 µM.

In the case of `Cc1ccccc1C(=O)NNS(=O)(=O)c1ccccc1` [Compound I-148], the half-maximal inhibitory concentration (IC50) in experiment [1] and in experiment [2] was greater than 100 µM throughout.

Consider `O=C(NNS(=O)(=O)c1ccccc1)c1ccccc1Cl` [Compound I-149], for which the IC50 in experiment [1] and in experiment [2] was greater than 100 µM throughout.

As for `Cc1cc(-c2ccccc2)cc(C(=O)Nc2nnc3n2CCCC3)c1F` [Compound I-150], the 50% inhibitory concentration (IC50) in experiment [1] and in experiment [2] was greater than 100 µM each time.

As for `Cc1cc(-c2ccccc2)cc(C(=O)NS(=O)(=O)N2CCCC2)c1F` [Compound I-151], the half-maximal inhibitory concentration (IC50) in experiment [1] and in experiment [2] was greater than 100 µM each time.

In the case of `O=C(NNS(=O)(=O)c1cccc(Cl)c1)c1cc(-c2ccccc2)ccc1F` [Compound I-152], the IC50 in experiment [1] is 10 to 50 µM; in experiment [2] it was no more than 10 µM.

Regarding `O=C(NNS(=O)(=O)c1ccccc1)c1cc(Cl)ccc1F` [Compound I-153], the figures for the 50% inhibitory concentration (IC50) in experiment [1] and in experiment [2] were 10 to 50 µM and no more than 10 µM, respectively.

`O=C(NNS(=O)(=O)c1cccc(F)c1)c1cc(-c2ccccc2)ccc1F` [Compound I-154]: the IC50 in experiment [1] is 10 to 50 µM; in experiment [2] it was no more than 10 µM.

As to `Cc1cccc(S(=O)(=O)NNC(=O)c2c(F)ccc(-c3ccccc3)c2F)c1` [Compound I-155], the IC50 is 10 to 50 µM in experiment [1] and no more than 10 µM in experiment [2].

As to `O=C(NNS(=O)(=O)c1ccc(Cl)cc1)c1c(F)ccc(-c2ccccc2)c1F` [Compound I-156], the IC50 in experiment [1] is 10 to 50 µM; in experiment [2], no more than 10 µM.

For the compound `O=C(NNS(=O)(=O)c1ccccc1)c1c[nH]c2ccccc12` [Compound I-158], the half-maximal inhibitory concentration (IC50) in experiment [1] and in experiment [2] was greater than 100 µM throughout.

In the case of `O=C(NNS(=O)(=O)c1ccccc1)c1ccccc1` [Compound I-159], the half-inhibitory concentration (IC50) in experiment [1] is greater than 100 µM; in experiment [2], 50 to 100 µM.

`O=C(NNS(=O)(=O)c1ccccc1)c1cccc(Cl)c1F` [Compound I-160]: the IC50 in experiment [1] is 10 to 50 µM; in experiment [2] it was no more than 10 µM.

`O=C(NNS(=O)(=O)c1cccc(Cl)c1)c1c(F)ccc(-c2ccccc2)c1F` [Compound I-161]: the IC50 is 10 to 50 µM in experiment [1] and no more than 10 µM in experiment [2].

As for `Cc1cc(-c2ccccc2)cc(C(=O)NNS(=O)(=O)c2ccc(=O)[nH]c2)c1F` [Compound I-162], the IC50 was greater than 100 µM in experiment [1] and no more than 10 µM in experiment [2].

Consider `O=C(NNS(=O)(=O)c1ccc2ccccc2c1)c1c(F)ccc(-c2ccccc2)c1F` [Compound I-164], for which the IC50 in experiment [1] and in experiment [2] was no more than 10 µM each time.

Regarding `O=C(NNS(=O)(=O)c1ccccc1)c1ccccc1F` [Compound I-165], the IC50 in experiment [1] was greater than 100 µM; in experiment [2], 10 to 50 µM.

Regarding `O=C(NNS(=O)(=O)c1ccccc1)c1c(F)cccc1F` [Compound I-166], the 50% inhibitory concentration (IC50) in experiment [1] was greater than 100 µM; in experiment [2], 10 to 50 µM.

`O=C(NNS(=O)(=O)c1ccccc1)c1c(F)ccc(-c2cn[nH]c2)c1F` [Compound I-167]: the values for the IC50 in experiment [1] and in experiment [2] were 50 to 100 µM and 10 to 50 µM, respectively.

In the case of `Cc1cc(-c2ccccc2)cc(C(=O)NS(=O)(=O)c2ccccc2)c1F` [Compound I-168], the IC50 in experiment [1] and in experiment [2] was 50 to 100 µM throughout.

For the compound `O=C(NNCc1ccccc1)c1ccccc1F` [Compound I-169], the half-inhibitory concentration (IC50) in experiment [1] and in experiment [2] was greater than 100 µM in each case.

`O=C(NNS(=O)(=O)c1cccc(Cl)c1)c1c(F)ccc(-c2ncc[nH]2)c1F` [Compound I-170]: the IC50 is greater than 100 µM in experiment [1] and 50 to 100 µM in experiment [2].

As for `Cc1c(-c2ccccc2)ccc(F)c1C(=O)NNC(=O)c1ccccc1` [Compound I-171], the IC50 in experiment [1] and in experiment [2] was greater than 100 µM each time.

Turning to `Cn1ccnc1-c1ccc(F)c(C(=O)NNS(=O)(=O)c2ccccc2)c1F` [Compound I-172], the IC50 is greater than 100 µM in experiment [1] and 10 to 50 µM in experiment [2].

For `Cc1cc(-c2ccccc2)cc(C(=O)NCc2cc[nH]n2)c1F` [Compound I-173], the 50% inhibitory concentration (IC50) in experiment [1] and in experiment [2] was greater than 100 µM throughout.

In the case of `COc1ccccc1S(=O)(=O)NNC(=O)c1ccccc1F` [Compound I-174], the IC50 in experiment [1] and in experiment [2] was greater than 100 µM each time.

Consider `Cc1cc(-c2ccccc2)cc(C(=O)NNS(=O)(=O)c2cccnc2)c1F` [Compound I-175], for which the half-inhibitory concentration (IC50) in experiment [1] and in experiment [2] was no more than 10 µM in each case.

`COc1ccccc1S(=O)(=O)NNC(=O)c1cc(-c2ccccc2)cc(C)c1F` [Compound I-176]: the half-maximal inhibitory concentration (IC50) in experiment [1] and in experiment [2] was no more than 10 µM throughout.

Regarding `COc1cccc(S(=O)(=O)NNC(=O)c2ccccc2F)c1` [Compound I-177], the results for the half-inhibitory concentration (IC50) in experiment [1] and in experiment [2] were greater than 100 µM and 10 to 50 µM, respectively.

As for `Cc1cc(-c2ccccc2)cc(C(=O)NCC(O)c2ccccc2)c1F` (stereo not drawn) [Compound I-178], the 50% inhibitory concentration (IC50) in experiment [1] and in experiment [2] was greater than 100 µM each time.

On to `O=C(NNS(=O)(=O)c1ccccc1)c1cccc2ccccc12` [Compound I-180], for which the half-maximal inhibitory concentration (IC50) in experiment [1] and in experiment [2] was greater than 100 µM throughout.

Turning to `Cc1cccc(C(=O)NNS(=O)(=O)c2ccccc2)c1F` [Compound I-183], the values for the IC50 in experiment [1] and in experiment [2] were 10 to 50 µM and no more than 10 µM, respectively.

As to `Cc1cc(-c2ccccc2)cc(C(=O)NNS(=O)(=O)C2CC3CCC(C2)N3)c1F` (stereo not drawn) [Compound I-184], the half-maximal inhibitory concentration (IC50) in experiment [1] and in experiment [2] was greater than 100 µM throughout.

As to `O=C(NS(=O)(=O)c1ccccc1)c1c[nH]c2ccccc12` [Compound I-185], the IC50 in experiment [1] and in experiment [2] was greater than 100 µM throughout.

For `COc1ccc(S(=O)(=O)NNC(=O)c2c(F)ccc(-c3ccccc3)c2C)cc1` [Compound I-186], the figures for the half-maximal inhibitory concentration (IC50) in experiment [1] and in experiment [2] were 50 to 100 µM and 10 to 50 µM, respectively.

Turning to `Cc1cc(-c2ccccc2)cc(C(=O)NNS(=O)(=O)c2cccc(Cl)c2)c1F` [Compound I-187], the IC50 in experiment [1] and in experiment [2] was no more than 10 µM throughout.

Consider `Cc1cccc(S(=O)(=O)NNC(=O)c2cc(-c3ccccc3)cc(C)c2F)c1` [Compound I-188], for which the half-maximal inhibitory concentration (IC50) in experiment [1] and in experiment [2] was no more than 10 µM each time.

Take `O=C(NNS(=O)(=O)c1ccccc1)c1ncccn1` [Compound I-189]: the IC50 in experiment [1] and in experiment [2] was greater than 100 µM in each case.

With `O=C(NNS(=O)(=O)c1ccccc1)c1cccc(Cl)c1` [Compound I-190], the half-maximal inhibitory concentration (IC50) in experiment [1] was in the range of 50 to 100 µM; in experiment [2] it was 10 to 50 µM.

Take `COc1ccc(C(=O)NNS(=O)(=O)c2ccccc2)cc1` [Compound I-192]: the half-maximal inhibitory concentration (IC50) in experiment [1] and in experiment [2] was greater than 100 µM throughout.

For `O=C(NNS(=O)(=O)c1ccccc1)c1ccc(F)cc1` [Compound I-193], the results for the IC50 in experiment [1] and in experiment [2] were greater than 100 µM and 50 to 100 µM, respectively.

As for `O=C(NNS(=O)(=O)c1ccccc1)c1ccccn1` [Compound I-194], the 50% inhibitory concentration (IC50) in experiment [1] and in experiment [2] was greater than 100 µM throughout.

Consider `Cc1cc(-c2cccnc2)cc(C(=O)NNS(=O)(=O)c2ccccc2)c1F` [Compound I-195], for which the values for the half-inhibitory concentration (IC50) in experiment [1] and in experiment [2] were 10 to 50 µM and no more than 10 µM, respectively.

As for `O=C(NNS(=O)(=O)c1ccccc1)c1n[nH]c2ccccc12` [Compound I-196], the results for the half-inhibitory concentration (IC50) in experiment [1] and in experiment [2] were greater than 100 µM and 50 to 100 µM, respectively.

For `O=C(NNS(=O)(=O)c1ccccc1)c1cnn(-c2ccccc2)c1` [Compound I-197], the IC50 in experiment [1] and in experiment [2] was greater than 100 µM in each case.

In the case of `O=C(NNS(=O)(=O)c1cccc(Cl)c1)c1c(F)ccc(Cl)c1F` [Compound I-198], the IC50 in experiment [1] is 50 to 100 µM; in experiment [2], no more than 10 µM.

Consider `Cc1cc(-c2ccccc2)cc(C(=O)N2CC(S(=O)(=O)c3ccccc3)C2)c1F` [Compound I-199], for which the IC50 in experiment [1] and in experiment [2] was greater than 100 µM each time.

As to `Cc1ccc(-c2ccccc2)c(C)c1C(=O)NNS(=O)(=O)c1ccccc1` [Compound I-200], the 50% inhibitory concentration (IC50) in experiment [1] and in experiment [2] was greater than 100 µM each time.

In the case of `Cc1cc(-c2ccncc2)cc(C(=O)NNS(=O)(=O)c2ccccc2)c1F` [Compound I-202], the IC50 is greater than 100 µM in experiment [1] and 10 to 50 µM in experiment [2].

In the case of `Cc1cccc(C(=O)NNS(=O)(=O)C2CNC2)c1F` [Compound I-203], the half-inhibitory concentration (IC50) in experiment [1] and in experiment [2] was greater than 100 µM each time.

Take `Cc1c(F)cc(-c2ccccc2)cc1C(=O)NNS(=O)(=O)c1ccccc1` [Compound I-205]: the IC50 is greater than 100 µM in experiment [1] and 50 to 100 µM in experiment [2].

As to `Cc1cc(-c2ccccc2)cc(C(=O)NNS(=O)(=O)CC2CCN(C(=O)OC(C)(C)C)C2)c1F` (stereo not drawn) [Compound I-206], the 50% inhibitory concentration (IC50) in experiment [1] and in experiment [2] was no more than 10 µM each time.

Take `Cc1cc(-c2ccccc2)cc(C(=O)NNS(=O)(=O)CC2CN(C(=O)OC(C)(C)C)C2)c1F` [Compound I-207]: the IC50 in experiment [1] and in experiment [2] was no more than 10 µM each time.

The record behind these values is patent US20220267260A1, “COMPOUNDS CONTAINING A SULFONIC GROUP AS KAT INHIBITORS” (Epizyme, Inc., priority 2016, published 2022).
